From ChEMBL document CHEMBL1201862, “PubChem BioAssay data set” (2004)
The source made the active and inactive calls.

Experiments:
Escherichia coli = experiment: microbe, parasite or virus in culture
[1] = target: T1, Mannose-6-phosphate isomerase (Homo sapiens, UniProt P34949); experiment: phosphomannose isomerase inhibition – biochemical, fluorescence intensity, confirmation (AID 1535)
T1 sequence (P34949 whole entry): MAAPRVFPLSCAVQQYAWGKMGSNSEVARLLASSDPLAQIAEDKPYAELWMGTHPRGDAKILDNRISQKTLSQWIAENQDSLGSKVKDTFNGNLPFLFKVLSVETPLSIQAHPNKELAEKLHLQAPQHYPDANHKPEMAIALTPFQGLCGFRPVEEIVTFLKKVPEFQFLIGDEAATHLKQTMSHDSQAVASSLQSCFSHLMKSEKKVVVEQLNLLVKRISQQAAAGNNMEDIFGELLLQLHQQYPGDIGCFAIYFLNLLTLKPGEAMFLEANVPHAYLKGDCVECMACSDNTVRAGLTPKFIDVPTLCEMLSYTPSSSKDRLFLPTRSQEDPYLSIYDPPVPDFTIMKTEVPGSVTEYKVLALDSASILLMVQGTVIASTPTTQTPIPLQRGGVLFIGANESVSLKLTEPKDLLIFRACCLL

[2] = target: T2, Type-1 angiotensin II receptor (Homo sapiens, UniProt P30556); experiment: agonist activity at AGTR1 – cell-based, uHTS hits, selectivity assay for APJ receptor agonist project, dose response (AID 488865); assay type: functional;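 also: beta-arrestin recruitment to AT1 measured by enzyme fragment complementation luminescence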
T2 sequence (P30556 whole entry): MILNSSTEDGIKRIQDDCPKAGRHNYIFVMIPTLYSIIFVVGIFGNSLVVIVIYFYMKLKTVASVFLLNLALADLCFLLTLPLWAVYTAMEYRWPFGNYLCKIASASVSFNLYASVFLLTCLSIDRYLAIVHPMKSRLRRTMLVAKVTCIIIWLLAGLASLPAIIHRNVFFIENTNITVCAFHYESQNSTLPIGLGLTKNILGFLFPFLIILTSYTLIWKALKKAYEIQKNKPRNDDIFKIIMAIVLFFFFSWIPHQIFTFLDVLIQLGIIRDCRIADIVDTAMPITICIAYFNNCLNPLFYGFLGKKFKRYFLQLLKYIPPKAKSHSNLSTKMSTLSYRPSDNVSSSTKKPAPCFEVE

[3] = target: DNA dC->dU-editing enzyme APOBEC-3A (Homo sapiens, UniProt P31941); experiment: Dose Response confirmation of small molecule APOBEC3A DNA Deaminase Inhibitors via a fluorescence-based single-stranded DNA deaminase assay. [Related pubchem assays (depositor defined):AID493011, AID493024]; assay type: functional
Sequence of DNA dC->dU-editing enzyme APOBEC-3A (P31941 whole entry): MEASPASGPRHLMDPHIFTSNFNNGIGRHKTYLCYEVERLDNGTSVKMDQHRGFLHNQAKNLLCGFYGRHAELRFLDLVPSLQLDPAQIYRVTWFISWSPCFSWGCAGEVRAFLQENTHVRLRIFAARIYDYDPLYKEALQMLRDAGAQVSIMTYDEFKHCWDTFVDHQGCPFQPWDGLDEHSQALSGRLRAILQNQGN

[4] = target: Induced myeloid leukemia cell differentiation protein Mcl-1 (Homo sapiens, UniProt Q07820); assay type: functional
Sequence of Induced myeloid leukemia cell differentiation protein Mcl-1 (Q07820 whole entry, the tested form may be a part): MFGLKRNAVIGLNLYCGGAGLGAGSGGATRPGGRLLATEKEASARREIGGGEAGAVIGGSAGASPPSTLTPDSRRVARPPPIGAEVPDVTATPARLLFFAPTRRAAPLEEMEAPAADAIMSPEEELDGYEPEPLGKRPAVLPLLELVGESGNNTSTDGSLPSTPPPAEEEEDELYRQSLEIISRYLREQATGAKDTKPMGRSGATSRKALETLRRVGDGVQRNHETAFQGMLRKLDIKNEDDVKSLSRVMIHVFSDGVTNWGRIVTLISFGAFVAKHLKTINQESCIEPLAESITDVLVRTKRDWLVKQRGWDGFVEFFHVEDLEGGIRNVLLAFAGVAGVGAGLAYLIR

[5] = target: T3, Carboxy-terminal domain RNA polymerase II polypeptide A small phosphatase 1 (Homo sapiens, UniProt Q9GZU7); experiment: CTDSP1 inhibitors, concentration-response, biochemical, absorbance readout, ultra-high-throughput screen actives (AID 540297); assay type: functional
T3 sequence (Q9GZU7 whole entry): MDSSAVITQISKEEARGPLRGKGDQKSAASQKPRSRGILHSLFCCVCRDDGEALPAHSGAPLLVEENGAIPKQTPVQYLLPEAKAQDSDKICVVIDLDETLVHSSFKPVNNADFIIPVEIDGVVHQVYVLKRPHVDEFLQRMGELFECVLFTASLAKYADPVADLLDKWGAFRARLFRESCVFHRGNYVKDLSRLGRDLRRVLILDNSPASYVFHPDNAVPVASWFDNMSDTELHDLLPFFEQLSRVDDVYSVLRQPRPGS

Cytochrome P450 3A4 [6] = target: T4, Cytochrome P450 3A4 (Homo sapiens, UniProt P08684);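 also: CYP3A4 tested as one member of a cytochrome P450 panel screen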
T4 sequence (P08684 whole entry): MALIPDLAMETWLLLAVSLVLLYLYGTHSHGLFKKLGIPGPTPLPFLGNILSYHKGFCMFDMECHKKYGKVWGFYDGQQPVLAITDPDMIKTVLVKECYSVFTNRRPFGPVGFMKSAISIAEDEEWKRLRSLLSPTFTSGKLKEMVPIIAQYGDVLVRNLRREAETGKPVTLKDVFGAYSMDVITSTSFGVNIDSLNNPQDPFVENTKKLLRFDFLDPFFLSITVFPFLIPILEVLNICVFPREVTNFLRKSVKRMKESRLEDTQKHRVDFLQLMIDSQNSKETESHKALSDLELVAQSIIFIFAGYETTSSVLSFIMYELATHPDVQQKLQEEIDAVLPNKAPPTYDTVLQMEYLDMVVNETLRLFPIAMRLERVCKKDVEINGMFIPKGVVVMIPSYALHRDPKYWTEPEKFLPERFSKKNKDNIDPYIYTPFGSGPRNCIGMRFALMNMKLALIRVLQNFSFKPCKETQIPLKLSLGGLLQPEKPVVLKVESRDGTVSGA

Estrogen receptor = target: T5, Estrogen receptor (Homo sapiens, UniProt P03372);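 also: potency for inhibiting coactivator peptide recruitment to the receptor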
T5 sequence (P03372 whole entry): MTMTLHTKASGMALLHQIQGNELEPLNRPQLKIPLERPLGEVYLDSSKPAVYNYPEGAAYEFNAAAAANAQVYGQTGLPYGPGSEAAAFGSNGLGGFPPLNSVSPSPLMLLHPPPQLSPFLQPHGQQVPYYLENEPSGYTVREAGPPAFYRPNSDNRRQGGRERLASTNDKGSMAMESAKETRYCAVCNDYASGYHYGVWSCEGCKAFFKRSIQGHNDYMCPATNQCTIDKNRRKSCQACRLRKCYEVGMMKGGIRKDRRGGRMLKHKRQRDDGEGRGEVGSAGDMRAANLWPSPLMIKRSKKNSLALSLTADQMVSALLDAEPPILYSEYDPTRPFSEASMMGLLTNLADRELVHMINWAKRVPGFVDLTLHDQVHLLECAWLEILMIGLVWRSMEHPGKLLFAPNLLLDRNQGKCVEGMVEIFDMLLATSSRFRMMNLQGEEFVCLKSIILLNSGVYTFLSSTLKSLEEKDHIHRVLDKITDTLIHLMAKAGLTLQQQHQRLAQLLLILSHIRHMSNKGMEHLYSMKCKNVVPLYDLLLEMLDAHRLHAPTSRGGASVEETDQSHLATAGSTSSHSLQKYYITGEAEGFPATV

Estrogen receptor beta = Estrogen receptor beta (Homo sapiens, UniProt Q92731); experiment: blockers of SRC-3 recruitment to ERβ – biochemical, ELISA, streptavidin-HRP readout, orthogonal assay, confirmation (AID 1060)
Sequence of Estrogen receptor beta (Q92731 whole entry): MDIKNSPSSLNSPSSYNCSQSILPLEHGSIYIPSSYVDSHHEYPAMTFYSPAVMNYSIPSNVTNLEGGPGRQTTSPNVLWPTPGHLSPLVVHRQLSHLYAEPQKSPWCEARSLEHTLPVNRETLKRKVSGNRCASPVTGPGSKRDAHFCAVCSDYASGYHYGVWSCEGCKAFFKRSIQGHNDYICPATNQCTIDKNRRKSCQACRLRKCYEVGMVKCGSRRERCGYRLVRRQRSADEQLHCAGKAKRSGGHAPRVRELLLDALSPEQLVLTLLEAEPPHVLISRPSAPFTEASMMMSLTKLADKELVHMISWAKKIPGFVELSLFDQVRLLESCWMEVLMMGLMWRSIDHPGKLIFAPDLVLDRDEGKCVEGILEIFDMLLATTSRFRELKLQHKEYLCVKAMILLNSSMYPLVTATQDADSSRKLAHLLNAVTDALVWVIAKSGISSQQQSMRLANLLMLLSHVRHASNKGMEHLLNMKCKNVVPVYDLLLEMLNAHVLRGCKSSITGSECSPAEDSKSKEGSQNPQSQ

Cytochrome P450 1A2 = target: T6, Cytochrome P450 1A2 (Homo sapiens, UniProt P05177);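 also: PubChem cytochrome P450 panel assay, CYP1A2 panel member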
T6 sequence (P05177 whole entry): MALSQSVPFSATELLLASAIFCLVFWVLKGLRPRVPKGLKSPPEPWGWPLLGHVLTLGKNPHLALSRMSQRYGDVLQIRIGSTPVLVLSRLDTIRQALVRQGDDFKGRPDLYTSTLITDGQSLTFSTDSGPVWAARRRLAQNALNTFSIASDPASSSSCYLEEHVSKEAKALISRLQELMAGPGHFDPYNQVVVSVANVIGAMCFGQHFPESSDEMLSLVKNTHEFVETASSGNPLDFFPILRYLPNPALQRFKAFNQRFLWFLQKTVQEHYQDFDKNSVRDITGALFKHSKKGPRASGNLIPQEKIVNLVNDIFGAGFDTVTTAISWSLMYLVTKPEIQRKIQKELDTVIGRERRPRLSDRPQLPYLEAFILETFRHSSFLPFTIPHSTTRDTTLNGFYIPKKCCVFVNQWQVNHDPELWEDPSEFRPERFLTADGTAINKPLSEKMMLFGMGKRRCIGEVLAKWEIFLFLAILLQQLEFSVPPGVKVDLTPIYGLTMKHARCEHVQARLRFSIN

[7] = target: DNA dC->dU-editing enzyme APOBEC-3G (Homo sapiens, UniProt Q9HC16); assay type: functional;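 also: Dose-response counterscreen measuring inhibition of APOBEC3G DNA deaminase activity, run while confirming APOBEC3A inhibitors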
Cytochrome P450 2D6 = Cytochrome P450 2D6 (Homo sapiens, UniProt P10635);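 also: CYP2D6 member of a cytochrome P450 panel assay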
Sequence of Cytochrome P450 2D6 (P10635 whole entry): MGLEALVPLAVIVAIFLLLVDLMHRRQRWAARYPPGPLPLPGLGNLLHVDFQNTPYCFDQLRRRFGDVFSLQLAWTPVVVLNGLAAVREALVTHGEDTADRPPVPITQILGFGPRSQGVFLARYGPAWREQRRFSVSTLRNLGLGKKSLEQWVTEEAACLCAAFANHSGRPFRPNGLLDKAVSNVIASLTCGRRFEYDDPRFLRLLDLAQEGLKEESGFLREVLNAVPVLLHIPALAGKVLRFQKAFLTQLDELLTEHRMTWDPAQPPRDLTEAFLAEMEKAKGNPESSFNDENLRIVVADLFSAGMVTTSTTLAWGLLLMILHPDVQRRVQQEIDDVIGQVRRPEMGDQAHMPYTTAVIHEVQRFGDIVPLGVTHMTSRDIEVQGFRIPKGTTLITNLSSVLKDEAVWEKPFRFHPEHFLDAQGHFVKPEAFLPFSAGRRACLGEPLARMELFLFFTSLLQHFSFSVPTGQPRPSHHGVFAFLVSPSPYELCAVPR

Cytochrome P450 2C19 = Cytochrome P450 2C19 (Homo sapiens, UniProt P33261); experiment: Cytochrome panel assay with activity outcomes. Panel member name: p450-cyp2c19 Compounds with AC50 equal or less than 10 uM are considered active; assay type: functional
Sequence of Cytochrome P450 2C19 (P33261 whole entry): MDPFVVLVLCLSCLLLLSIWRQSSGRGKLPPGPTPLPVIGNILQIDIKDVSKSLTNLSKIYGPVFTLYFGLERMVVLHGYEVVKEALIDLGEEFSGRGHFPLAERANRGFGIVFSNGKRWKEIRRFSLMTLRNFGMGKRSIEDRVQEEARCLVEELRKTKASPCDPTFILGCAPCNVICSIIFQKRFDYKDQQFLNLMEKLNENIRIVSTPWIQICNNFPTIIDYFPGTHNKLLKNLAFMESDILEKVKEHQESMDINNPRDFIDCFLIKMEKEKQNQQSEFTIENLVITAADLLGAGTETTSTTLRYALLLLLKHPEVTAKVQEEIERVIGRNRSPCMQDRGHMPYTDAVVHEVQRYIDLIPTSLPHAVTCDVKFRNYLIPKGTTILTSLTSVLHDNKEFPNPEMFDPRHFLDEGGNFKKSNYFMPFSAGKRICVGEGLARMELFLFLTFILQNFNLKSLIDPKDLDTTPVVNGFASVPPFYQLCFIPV

Cytochrome P450 3A4 [8] = target: T4, Cytochrome P450 3A4; remark: listed apart in the source
A-375 [9] = experiment: MITF: Counter assay: A375 proliferation Measured in Cell-Based System Using Plate Reader - 2084-03_Inhibitor_Dose_DryPowder_Activity. [Related pubchem assays (depositor defined):AID488944]; assay type: functional; conditions: Homo sapiens
A-375 [10] = experiment: proliferation inhibition in MITF-low A375 cells – cell-based, cherry-pick samples, set 2, counter-screen for MITF modulator project, dose response (AID 540335); assay type: functional; conditions: Homo sapiens
HeLa [11] = experiment: ATP-based viability loss in HeLa cells – cell-based, CellTiter-Glo luminescence, cherry-pick samples, cytotoxicity control for MITF activator project, dose response (AID 540259); assay type: functional; conditions: Homo sapiens
ORF 73 = ORF 73 (Human herpesvirus 8, UniProt O40947); experiment: KSHV LANA DNA-binding disruption – biochemical, fluorescence polarization, cherry-picked samples, dose response (AID 504725); parameters: species or system Human gammaherpesvirus 8;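 also: fluorescence polarization of a labeled DNA duplex reporting LANA DNA binding; potency is for inhibitors that block LANA binding to the DNA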
Sequence of ORF 73 (O40947 whole entry): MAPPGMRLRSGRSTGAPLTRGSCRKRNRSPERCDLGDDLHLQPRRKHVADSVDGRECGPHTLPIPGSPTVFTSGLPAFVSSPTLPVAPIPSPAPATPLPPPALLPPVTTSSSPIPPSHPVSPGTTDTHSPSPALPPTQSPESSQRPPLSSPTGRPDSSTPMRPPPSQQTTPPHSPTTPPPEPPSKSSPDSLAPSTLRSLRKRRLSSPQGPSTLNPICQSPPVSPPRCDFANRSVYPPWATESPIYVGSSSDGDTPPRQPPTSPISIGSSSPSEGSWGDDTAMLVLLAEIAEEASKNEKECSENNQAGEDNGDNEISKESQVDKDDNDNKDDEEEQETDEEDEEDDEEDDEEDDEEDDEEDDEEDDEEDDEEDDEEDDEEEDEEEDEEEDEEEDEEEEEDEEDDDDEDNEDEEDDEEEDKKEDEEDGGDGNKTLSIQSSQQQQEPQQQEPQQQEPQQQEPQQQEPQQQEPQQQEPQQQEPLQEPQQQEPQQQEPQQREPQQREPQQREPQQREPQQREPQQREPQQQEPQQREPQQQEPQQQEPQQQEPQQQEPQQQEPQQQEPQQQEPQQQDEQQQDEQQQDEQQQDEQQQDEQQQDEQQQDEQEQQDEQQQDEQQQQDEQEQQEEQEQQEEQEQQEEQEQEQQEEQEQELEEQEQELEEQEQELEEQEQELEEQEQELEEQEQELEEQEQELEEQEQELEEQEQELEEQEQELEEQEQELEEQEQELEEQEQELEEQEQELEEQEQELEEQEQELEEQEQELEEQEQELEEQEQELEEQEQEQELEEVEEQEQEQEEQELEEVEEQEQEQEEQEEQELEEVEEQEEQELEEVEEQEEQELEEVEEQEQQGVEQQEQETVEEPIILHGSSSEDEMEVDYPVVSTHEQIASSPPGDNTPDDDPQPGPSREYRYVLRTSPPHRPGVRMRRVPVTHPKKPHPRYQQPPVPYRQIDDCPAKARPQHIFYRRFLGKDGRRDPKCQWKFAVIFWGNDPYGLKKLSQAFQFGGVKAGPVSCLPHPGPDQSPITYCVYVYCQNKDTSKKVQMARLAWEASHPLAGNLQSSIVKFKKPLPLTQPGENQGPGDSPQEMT

Beta-lactamase [12] = target: Beta-lactamase (Salmonella choleraesuis (strain SC-B67), UniProt Q5J463)
Sequence of Beta-lactamase (Salmonella choleraesuis (strain SC-B67), UniProt Q5J463) (Q5J463 whole entry): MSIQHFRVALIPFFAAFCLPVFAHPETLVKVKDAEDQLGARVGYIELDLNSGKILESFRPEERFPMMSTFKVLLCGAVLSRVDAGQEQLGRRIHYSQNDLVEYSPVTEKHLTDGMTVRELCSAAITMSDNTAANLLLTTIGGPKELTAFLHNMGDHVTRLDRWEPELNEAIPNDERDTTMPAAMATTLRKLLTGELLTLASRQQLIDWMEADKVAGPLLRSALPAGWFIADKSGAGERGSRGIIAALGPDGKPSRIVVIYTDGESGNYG

HeLa [13] = experiment: viability loss in HeLa cells – cell-based, 24 h, cherry-picked samples, cytotoxicity control, dose response (AID 504726); assay type: functional; conditions: Homo sapiens;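 also: potency for cytotoxicity as loss of luminescence signal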
Beta-lactamase [14] = target: Beta-lactamase (Pseudomonas aeruginosa, UniProt Q79MP6);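 also: biochemical dose-response test of metallo-beta-lactamase enzyme inhibition, read out by epi-absorbance; purified recombinant IMP-1 metallo-beta-lactamase with nitrocefin as substrate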
[15] = target: UDP-galactopyranose mutase (Mycobacterium tuberculosis, UniProt P9WIQ1); experiment: Inhibitors of Mycobacterium tuberculosis UDP-galactopyranose mutase (UGM) enzyme Measured in Biochemical System Using Plate Reader - 2105-02_Inhibitor_Dose_CherryPick_Activity. [Related pubchem assays (depositor defined):AID504439]
Sequence of UDP-galactopyranose mutase (P9WIQ1 whole entry): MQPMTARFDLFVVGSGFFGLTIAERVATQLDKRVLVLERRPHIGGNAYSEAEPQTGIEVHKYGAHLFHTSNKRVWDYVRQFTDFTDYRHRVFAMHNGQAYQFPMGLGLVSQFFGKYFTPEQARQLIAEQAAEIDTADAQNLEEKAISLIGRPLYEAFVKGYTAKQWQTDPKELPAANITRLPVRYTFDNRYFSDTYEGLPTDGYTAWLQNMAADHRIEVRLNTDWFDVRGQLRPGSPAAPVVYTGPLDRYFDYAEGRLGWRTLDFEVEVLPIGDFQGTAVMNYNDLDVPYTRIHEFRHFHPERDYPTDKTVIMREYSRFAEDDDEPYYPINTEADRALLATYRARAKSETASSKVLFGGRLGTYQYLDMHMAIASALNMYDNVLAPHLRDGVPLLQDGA

[16] = target: Glucose-6-phosphate 1-dehydrogenase (Homo sapiens, UniProt P11413); experiment: inhibition of Homo sapiens G6PD, dose series – biochemical, fluorescence, selectivity assay for P. falciparum G6PD inhibitor project, dose response (AID 504792); assay type: functional
Sequence of Glucose-6-phosphate 1-dehydrogenase (P11413 whole entry): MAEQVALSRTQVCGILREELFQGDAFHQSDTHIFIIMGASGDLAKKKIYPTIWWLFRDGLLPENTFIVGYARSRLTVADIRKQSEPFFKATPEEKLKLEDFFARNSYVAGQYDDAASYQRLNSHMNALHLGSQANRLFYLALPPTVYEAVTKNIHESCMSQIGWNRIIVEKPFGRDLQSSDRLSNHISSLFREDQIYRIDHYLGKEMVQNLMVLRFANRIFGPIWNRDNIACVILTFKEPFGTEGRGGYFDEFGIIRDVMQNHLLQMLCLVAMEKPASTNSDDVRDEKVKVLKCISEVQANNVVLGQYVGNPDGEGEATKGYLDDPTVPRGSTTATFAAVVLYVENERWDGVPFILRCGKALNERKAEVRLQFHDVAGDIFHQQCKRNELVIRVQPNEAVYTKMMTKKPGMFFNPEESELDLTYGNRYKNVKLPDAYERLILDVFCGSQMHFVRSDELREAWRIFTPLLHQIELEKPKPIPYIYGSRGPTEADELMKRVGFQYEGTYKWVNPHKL

[17] = viability loss in human Jurkat cells – cell-based, luminescence, cytotoxicity control for P. falciparum gametocyte viability project, dose response (AID 1117277); assay type: functional;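 also: potency reflects loss of cellular ATP meaning fewer viable cells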
[18] = viability inhibitors of stage V gametocytes – luminescence, dose response (AID 1117278); assay type: functional, cell-based;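 also: gametocytes exposed to compound for 24 hours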
[19] = target: T7, Corticotropin-releasing factor receptor 2/Corticotropin-releasing factor-binding protein (Homo sapiens, UniProt P24387+Q13324); experiment: activators of CRF receptor 2 with binding protein – uHTS hits, confirmation (AID 602473); assay type: functional; conditions: read-out: EC50_Mean
T7 sequence (Q13324 whole entry): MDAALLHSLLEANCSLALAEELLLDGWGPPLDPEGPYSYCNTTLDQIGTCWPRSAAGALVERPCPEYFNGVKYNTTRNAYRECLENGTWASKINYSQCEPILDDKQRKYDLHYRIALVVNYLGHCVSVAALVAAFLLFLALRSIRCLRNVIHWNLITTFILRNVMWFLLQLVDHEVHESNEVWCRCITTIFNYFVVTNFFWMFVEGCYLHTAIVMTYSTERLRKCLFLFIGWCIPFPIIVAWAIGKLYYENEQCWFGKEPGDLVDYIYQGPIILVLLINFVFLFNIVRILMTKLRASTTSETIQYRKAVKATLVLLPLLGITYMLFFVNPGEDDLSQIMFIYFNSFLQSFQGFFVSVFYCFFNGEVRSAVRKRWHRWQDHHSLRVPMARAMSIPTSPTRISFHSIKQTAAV
T7 sequence (P24387 whole entry): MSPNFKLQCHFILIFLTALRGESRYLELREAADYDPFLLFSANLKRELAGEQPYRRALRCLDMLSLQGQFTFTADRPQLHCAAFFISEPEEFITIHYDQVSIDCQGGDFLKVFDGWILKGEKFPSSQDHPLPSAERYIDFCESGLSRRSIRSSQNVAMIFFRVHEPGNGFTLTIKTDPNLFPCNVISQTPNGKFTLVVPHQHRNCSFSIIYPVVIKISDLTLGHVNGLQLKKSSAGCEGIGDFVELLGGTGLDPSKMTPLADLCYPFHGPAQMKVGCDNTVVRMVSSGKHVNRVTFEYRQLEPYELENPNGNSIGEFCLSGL

[20] = target: T1, Mannose-6-phosphate isomerase; experiment: MPI inhibition at elevated mannose 6-phosphate – biochemical, fluorescence intensity, high mannose 6-phosphate, primary screen (AID 1220)

SMILES: COc1c2ccoc2nc2c(OC)c(OC[C@@H](O)C(C)(C)O)ccc12
- AC50 (Escherichia coli): 54.2 µM (active)

SMILES: CCOC(=O)c1nnc(/N=c2\ssnc2Cl)o1
- IC50 [1]: 32.5 µM (active)

SMILES: COc1ccccc1-n1c(O)cc(=O)nc1SC
- EC50 [2]: > 100 µM (inactive)

SMILES: O=C(Cc1ccc(S(=O)(=O)N2CCOCC2)s1)Nc1nc2c(s1)CCCC2
- IC50 [3]: 10.5 µM (active)
- IC50 [4]: 4.44 µM (active)
- IC50 [5]: 3.2 µM (active)
- AC50 (Cytochrome P450 3A4 [6]): 14.1 µM (inconclusive)
- IC50 (Estrogen receptor): 4.69 µM (active)
- IC50 (Estrogen receptor beta): 5.27 µM (not active)
- AC50 (Cytochrome P450 1A2): 28.2 µM (inconclusive)
- IC50 [7]: 33.7 µM (active)

SMILES: C=C(C)CNCC(=C)C.Oc1c(Cl)c(Cl)c(Cl)c(Cl)c1Cl
- AC50 (Cytochrome P450 2D6): inactive
- AC50 (Cytochrome P450 2C19): inconclusive
- AC50 (Cytochrome P450 3A4 [8]): inactive

SMILES: COc1ccccc1N1CCN(/N=C/c2cccc(Cl)c2)CC1
- AC50 (A-375 [9]): > 35 µM (active)
- AC50 (A-375 [10]): > 35 µM (active)
- AC50 (HeLa [11]): 161 µM (active)

SMILES: Cc1ccc(NC(=O)Nc2ccccc2)nc1
- AC50 (A-375 [9]): > 35 µM (active)
- AC50 (A-375 [10]): > 35 µM (active)

SMILES: Cc1nn(C)c(C)c1N1C(=O)c2cccc3c(N)ccc(c23)C1=O
- AC50 (ORF 73): 0.81 µM (active)
- IC50 (Beta-lactamase [12]): 5.25 µM (active)
- AC50 (HeLa [13]): 264 µM (active)
- IC50 (Beta-lactamase [14]): 9.3 µM (active)
- AC50 [15]: 1.39 µM (active)

SMILES: Cc1ccc(-c2nn(C)c(=O)c3ccccc23)cc1CNC(=O)/C=C/c1ccccc1
- IC50 [16]: 49.5 µM (inactive)

SMILES: CC(=O)O.CN1CCN(CN2C(=O)C3C4C=CC(C3C2=O)C2C3C(=O)N(CN5CCN(C)CC5)C(=O)C3C42)CC1 (configuration not stated)
- AC50 (Cytochrome P450 2D6): inconclusive

SMILES: O=C(NCc1ccc(OC(F)(F)F)cc1)c1cccc2c1C(=O)c1ccc(N3CCCCC3)cc1S2(=O)=O
- IC50 [17]: > 83.3 µM (inactive)
- AC50 [15]: 7.54 µM (active)
- IC50 [18]: > 109 µM (inactive)
- EC50 [19]: 6.58 µM (active)

SMILES: C=CCSc1nc2sc3c(c2c(=O)n1CC)CCc1ccccc1-3
- IC50 [16]: > 80 µM (inactive)
- IC50 [20]: 13.5 µM (active)
